Experimental data: patent publication US20260216166A1, “COMPOUND FOR TREATMENT OF ERECTILE DYSFUNCTION” (Initiator Pharma A/S, priority 2023, published 2026)
“Also recorded” adds a separate entry of the source. Read-outs that look alike come from different tables or passages of the source.

Legend:
[1] = Plasma concentrations after repeat single oral doses in male subjects with ED; type: in vivo, human; conditions: 5 mg and 10 mg; Week 1 and Week 4
Experimental: On Day-7, and at the Week 1 (Day 1), Week 2, Week 3, Week 4 and Follow-up visits, all groups were asked to complete the IIEF-15 questionnaire. Group 2 was asked to complete a Visual Stimulation Assessment using a RigiScan Plus Monitor on Day-7, Week 1 (Day 1) and Week 4. Group 2 was also required to provide blood samples for pharmacokinetic assessment on Week 1 (Day 1) and Week 4. Group 3 was required to provide semen samples on Day-7 and Week 4.
Efficacy was assessed through the International Index of Erectile Function (IIEF)-15 questionnaire. The change from baseline in responses to questions of the IIEF-15 questionnaire, including questions regarding erectile function, orgasmic function, sexual desire, intercourse satisfaction and overall satisfaction domain scores, was determined at different time points of the study. RigiScan assessments during the stimulus assessment, and sperm count and motility by semen sample collection was used for efficacy evaluation. Safety was assessed through AE reporting, 12-lead ECG, vital signs, physical examinations and clinical laboratory evaluations. Pharmacokinetics was assessed by blood sampling.

[2] = Phase II single oral dose pharmacokinetics in male patients with ED; type: in vivo; conditions: human, plasma, 10 mg single oral dose; for Tmax: male, po, 10 mg
Experimental: The study was an exploratory Phase II, randomised, placebo-controlled, double-blind, crossover study, investigating the effects of a single oral dose of IP2015 on erectile function in males with ED. A dose level of 10 mg was selected. Patients were enrolled into two cohorts. Both cohorts participated in two periods (Period 1 and Period 2) and received a single dose of IP2015 and a single dose of placebo.
The IP2015 at a dose of 10 mg or matched placebo was administered once on the morning of Day 1 (in Period 1 and Period 2) as an oral solution in the fasted state. The dose was taken with 240 ml of water at room temperature. Subjects/patients were fasted overnight prior to dosing until 4 hours postdose. Water was allowed ad libitum except for 1 hour before and 1 hour after dosing.
The study also evaluated the plasma PK concentrations and parameters including but not limited to; AUC0-t, AUC0-∞, Cmax, tmax and T½ in male patients with ED. Blood samples for the determination of plasma concentrations of IP2015 were collected at predose, and 1, 4, 8 (post-stimulus challenge), and 24 hours postdose in each treatment period. The exploratory endpoint was the possible relationship between plasma PK levels and PD response as measured by RigiScan data.
Plasma samples for the determination of concentrations of IP2015 were analysed by using a validated liquid chromatography-tandem mass spectrometry method. The RigiScan Plus Monitor was used for efficacy during the stimulus challenge.
Safety parameters were listed and summarised using descriptive statistics. Pharmacokinetic parameter estimates were calculated using noncompartmental methods. Pharmacokinetic data were listed for each subject/patient and summarised by descriptive statistics.

[3] = tested on: anaesthetized rats; assay: Intracavernous pressure / spontaneous erections in anaesthetized rats; type: in vivo, rat
Experimental: For in vivo erectile physiology studies, rats were anaesthetized with pentobarbital sodium (Sygehus Apoteket, Aarhus, Denmark; 50 mg/kg) given intraperitoneally. During the experiment, the rats breathed spontaneously; the body temperature was monitored continuously and was maintained at 37° C. With a midline incision in the perineum, the base of the penis, enclosed by striated muscles, was exposed. The ischiocavernous muscle covering the crus corpus cavernosum was divided on one side, and entrance to the underlying tunica albuginea was given. A 25-gauge needle attached to a heparinized (100 IE ml-1) polyethylene catheter was inserted into the crus corpus cavernosum to measure intracavernous pressure (ICP). A heparinized polyethylene catheter (PE 50) was introduced into the carotid artery to measure mean arterial pressure (MAP). Continuous direct measurements of MAP and ICP were performed with transducers (Disposable BP Transducer, ADInstruments, UK), and registered and analysed on a computerized data acquisition system (PowerLab, ADInstruments).
A stabilizing period of 20-30 min was allowed before registration of basal ICP and MAP. Through a lower abdominal incision, the cavernous nerve was isolated at the lateral aspect of the prostate, and electrical stimulation was performed with a slender bipolar platinum electrode, which was connected to a S48 stimulator (Grass Instrument Co., Boston, MA, U.S.A.). To measure the maximum amplitude of the erectile response, a first stimulation of the cavernous nerve (square wave pulses of 6 Volts, 10 Hz, 1 ms pulse duration for 30 s) was performed.
IP2015, sildenafil, clozapine or vehicle were administered by injection in the jugular vein in volumes of maximum 200 μl. […] The observation period of spontaneous erection after injection of IP2015 was 30 min. Clozapine (1 mg/kg) or sildenafil (1 mg/kg) were administered 30 or 10 min prior to 1 mg/kg IP2015 injection, respectively. One group was injected with vehicle alone.
To investigate the involvement of proximal neuronal pathways in the effect of IP2015, mechanical denervation was performed. For mechanical denervation the isolated cavernous nerve was cut distal to the major pelvic ganglion. Absence of erectile response to electrical stimulation verified the efficacy of mechanical denervation.

[4] = tested on: rat corpus cavernosum strips; assay: Isometric tension of isolated rat corpus cavernosum strips
Experimental: For functional studies in corpus cavernosum strips, the penis was removed by cutting the crura corpora cavernosa at the point of adhesion to the lower pubic bone, and the corpora cavernosa were then dissected free. The penis was submerged immediately in ice-cold (4° C.) PSS. The tunica albuginea was carefully opened from its proximal extremity of the corpus cavernosum towards the penile shaft and the erectile tissue within the corpus cavernosum was microsurgically dissected free. Change in isometric tension of corpus cavernosum strips (0.5×0.5×3 mm) were investigated in a tissue organ bath system (750TOBS, Danish Myotechnology, Aarhus, Denmark). Silk ligatures were applied at both ends of the strip preparations, which were then suspended between two L-formed metal prongs in thermostatically controlled organ baths (5 ml, 37° C.) containing PSS aerated with a mixture of 5% CO2 in air (pH 7.4). The bath fluid was routinely changed every 20 min and replaced with fresh PSS, also kept at 37° C. During an equilibration period of 60 min, tension was adjusted until a mean stable tension of 1.2 mN was obtained, as described earlier.
To test the contractility of the preparations, they were exposed to a potassium physiological saline solution (KPSS) of 125 mM and phenylephrine (10^-6 M), after each contraction acetylcholine was administrated to check endothelium-dependent relaxations.
To investigate the effect of IP2015 on corpus cavernosum strips, the drug (10 9-3×10^-4 M) was administered either in preparations at baseline tension or contracted with phenylephrine (10^-6 M) in the absence or presence of L-NOARG (10 4 M), a NO synthase inhibitor, sildenafil (10^-7 M), a PDE5 inhibitor, a dopamine D1 receptor antagonist, SCH23390, and a dopamine D2 receptor antagonist, clozapine (10^-6 M). The effect of vehicle was also investigated.

COc1cc2ccc(OC3CC4CCC(C3)N4)cc2oc1=O (stereo not shown) [IP2015, 7-[(8-azabicyclo[3.2.1]octan-3-yl)oxy]-3-methoxy-chromen-2-one]
relation of plasma concentrations to dose [1]: linear relation of plasma concentrations to dose
Cmax [2]: 15.7 ng/mL
AUC(0-t) ([2]; read-out: mean AUC0-t): 287 ng·h/mL
Tmax ([2]; read-out: median tmax): 4 h
Tmax ([2]; read-out: tmax range): 1 to 8.53 h
intracavernosal pressure ([3]; anaesthetized rats, 0.1, 1, and 10 mg/kg in the jugular vein, in contrast to vehicle): induced transient increases in intracavernosal pressure corresponding to erections; also recorded: dose-dependent increases in intracavernous pressure
responses to electrical field stimulation (EFS) of the cavernous nerve ([3]; anaesthetized rats, IP2015 administration): without changing the responses to EFS
magnitude of erectile responses, ICP increases as percentage of MAP ([3]; anaesthetized rats, compared to vehicle): significantly increased compared to vehicle
frequency, duration, and magnitude of spontaneous erections ([3]; anaesthetized rats, i.v. 0.1, 1, 10 mg/kg): dose-dependently increased the number and the duration of spontaneous erections
IP2015-induced erectile responses after cutting the cavernosal nerve ([3]; anaesthetized rats, mechanical denervation): inhibited
penile pressure ([3]; direct intracavernosal injection): increased penile pressure
relaxation of corpus cavernosum strips ([4]; added at basal tension, increasing concentrations): concentration-dependently induced relaxation; also recorded: induced concentration-dependent relaxations; also recorded: induces relaxations
IP2015 relaxation in preparations with and without endothelium ([4]; corpus cavernosum strips, n=5): observed in preparations with endothelium but not in preparations without endothelium
